Laboratory results: patent publication US6355799B1, “Substituted benzene compounds, process for their preparation, and herbicidal and defoliant compositions containing them” (ISK Americas Incorporated, priority 1997, dated 2002)

Legend:
Type in all cases: in vivo
[1] = system: common ragweed (Ambrosia artemisizfolia L., AMBEL); assay: Post-emerge test, greenhouse herbicide activity screening; conditions: post-emerge, 14 days after application, rating scale 0-100
Method in brief: (§1)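 Fourteen days after spraying, crop and weed injury was graded visually from 0, no effect, to 100, every plant dead. Test substances were dissolved in acetone and applied at 15–1000 g ai/ha with a flat-fan nozzle. Application was either pre-emergence, one day after sowing, or post-emergence at the 2–3 leaf stage.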

[2] = system: ivyleaf morningglory (Ipomoea hederacea, IPOHE); assay: as above; conditions: post-emerge, 14 days after application, rating scale 0-100
Method in brief: as §1

[3] = system: velvetleaf (Abutilon theophrasti, ABUTH); assay: as above; conditions: post-emerge, 14 days after application, rating scale 0-100
Method in brief: as §1

[4] = system: barnyardgrass (Echinochloa crus-galli, ECHCG); assay: as above; conditions: post-emerge, 14 days after application, rating scale 0-100
Method in brief: as §1

[5] = system: sicklepod (Cassia obtusifolia, CASOB); assay: as above; conditions: post-emerge, 14 days after application, rating scale 0-100
Method in brief: as §1

[6] = system: redroot pigweed (Amaranthus retroflexus, AMARE); assay: as above; conditions: post-emerge, 14 days after application, rating scale 0-100
Method in brief: as §1

[7] = system: lambsquarters (Chenopodium album, CHEAL); assay: as above; conditions: post-emerge, 14 days after application, rating scale 0-100
Method in brief: as §1

[8] = system: johnsongrass (Sorghum halepense, SORHA); assay: as above; conditions: post-emerge, 14 days after application, rating scale 0-100
Method in brief: as §1

[9] = system: green foxtail (Setaria viridis, SETVI); assay: as above; conditions: post-emerge, 14 days after application, rating scale 0-100
Method in brief: as §1

[10] = system: large crabgrass (Digitaria sanguinalis, DIGSA); assay: as above; conditions: post-emerge, 14 days after application, rating scale 0-100
Method in brief: as §1

[11] = system: field corn (Zea mays L., var. Dekalb 535, CORN); assay: Pre-emerge test, crop safety; conditions: rated 14 days after application, 0 = no damage, 100 = complete death
Method in brief: (§2)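 Applied at 15–1000 g ai/ha from acetone in 187 l/ha spray volume. Post-emergence applications included 0.25% v/v non-ionic surfactant and reached plants sown 8–21 days before. Pre-emergence applications were incorporated by surface watering. Efficacy or crop damage was rated on a 0–100 scale after 14 days.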

[12] = system: upland rice (Oryza sp., var. Tebonnet, RICE); assay: Pre-emerge test, crop safety; conditions: rated 14 days after application, 0 = no damage, 100 = complete death
Method in brief: as §2

[13] = system: field corn (Zea mays L., var. Dekalb 535, CORN); assay: Post-emerge test, crop safety; conditions: post-emerge, 14 days after application, rating scale 0-100
Method in brief: (§3)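 Rating: 0–100 visual injury, 14 DAA. Application: acetone, 187 l/ha, 15–1000 g ai/ha, flat-fan track sprayer with nozzle 40–45 cm above soil or canopy. Post-emerge runs used 0.25% v/v surfactant on 2–3 leaf plants.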

[14] = system: upland rice (Oryza sp., var. Tebonnet, RICE); assay: Post-emerge test, crop safety; conditions: post-emerge, 14 days after application, rating scale 0-100
Method in brief: as §3

[15] = system: redroot pigweed (Amaranthus retroflexus, AMARE); assay: Pre-emerge test, greenhouse herbicide activity screening; conditions: rated 14 days after application, 0 = no damage, 100 = complete death
Method in brief: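 Herbicidal damage is scored 0 (none) to 100 (complete plant death) two weeks after a simulated field spray. Rates span 15–1000 g ai/ha, delivered in acetone at 187 l/ha. For post-emergence treatments, plants have 2–3 leaves and the spray carries 0.25% v/v non-ionic surfactant.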

[16] = system: common ragweed (Ambrosia artemisizfolia L., AMBEL); assay: as above; conditions: rated 14 days after application, 0 = no damage, 100 = complete death
Method in brief: (§4)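 Compounds in acetone were track-sprayed at 15–1000 g ai/ha: pre-emergence onto soil sown the previous day, then top-watered to incorporate and later bottom-watered; post-emergence onto 2–3 leaf plants with 0.25% v/v surfactant, bottom-watered only. Ratings on a 0–100 phytotoxicity scale were taken at day 14.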

[17] = system: ivyleaf morningglory (Ipomoea hederacea, IPOHE); assay: as above; conditions: rated 14 days after application, 0 = no damage, 100 = complete death
Method in brief: as §4

[18] = system: velvetleaf (Abutilon theophrasti, ABUTH); assay: as above; conditions: rated 14 days after application, 0 = no damage, 100 = complete death
Method in brief: as §4

[19] = system: barnyardgrass (Echinochloa crus-galli, ECHCG); assay: as above; conditions: rated 14 days after application, 0 = no damage, 100 = complete death
Method in brief: as §4

[20] = system: sicklepod (Cassia obtusifolia, CASOB); assay: as above; conditions: rated 14 days after application, 0 = no damage, 100 = complete death
Method in brief: as §4

[21] = system: lambsquarters (Chenopodium album, CHEAL); assay: as above; conditions: rated 14 days after application, 0 = no damage, 100 = complete death
Method in brief: as §4

[22] = system: johnsongrass (Sorghum halepense, SORHA); assay: as above; conditions: rated 14 days after application, 0 = no damage, 100 = complete death
Method in brief: as §4

[23] = system: green foxtail (Setaria viridis, SETVI); assay: as above; conditions: rated 14 days after application, 0 = no damage, 100 = complete death
Method in brief: as §4

[24] = system: large crabgrass (Digitaria sanguinalis, DIGSA); assay: as above; conditions: rated 14 days after application, 0 = no damage, 100 = complete death
Method in brief: as §4

`COc1c(Cl)cc(F)c(-n2c(=O)cc(C(F)(F)F)n(C)c2=O)c1NC(=O)c1ccc(I)cc1` [2-66] was tested, and the “phytotoxicity rating AMBEL” value ([1]; 63 g ai/ha) was 100, the “phytotoxicity rating AMBEL” value ([1]; 250 g ai/ha) was 75 and the “phytotoxicity rating IPOHE” value ([2]; 63 g ai/ha) was 100. The “phytotoxicity rating IPOHE” value ([2]; 250 g ai/ha) was 90, the “phytotoxicity rating ABUTH” value ([3]; 63 g ai/ha) was 100 and the “phytotoxicity rating ABUTH” value ([3]; 250 g ai/ha) was 100. The “phytotoxicity rating ECHCG” value ([4]; 63 g ai/ha) was 70, the “phytotoxicity rating ECHCG” value ([4]; 250 g ai/ha) was 50 and the “phytotoxicity rating CASOB” value ([5]; 63 g ai/ha) was 100. The “phytotoxicity rating CASOB” value ([5]; 250 g ai/ha) was 70, the “phytotoxicity rating AMARE” value ([6]; 63 g ai/ha) was 100 and the “phytotoxicity rating AMARE” value ([6]; 250 g ai/ha) was 100. The “phytotoxicity rating CHEAL” value ([7]; 63 g ai/ha) was 100, the “phytotoxicity rating CHEAL” value ([7]; 250 g ai/ha) was 100 and the “phytotoxicity rating SORHA” value ([8]; 63 g ai/ha) was 10. For the same compound, the “phytotoxicity rating SORHA” value ([8]; 250 g ai/ha) was 50, the “phytotoxicity rating SETVI” value ([9]; 63 g ai/ha) was 90 and the “phytotoxicity rating SETVI” value ([9]; 250 g ai/ha) was 80. The “phytotoxicity rating DIGSA” value ([10]; 63 g ai/ha) was 10, the “phytotoxicity rating DIGSA” value ([10]; 250 g ai/ha) was 20 and the “Pre-emerge phytotoxicity rating (0-100), crop damage, CORN” value ([11]; 63 g ai/ha) was 0. For the same compound, the “Pre-emerge phytotoxicity rating (0-100), crop damage, CORN” value ([11]; 250 g ai/ha) was 15, the “Pre-emerge phytotoxicity rating (0-100), crop damage, RICE” value ([12]; 63 g ai/ha) was 10 and the “Pre-emerge phytotoxicity rating (0-100), crop damage, RICE” value ([12]; 250 g ai/ha) was 60. The “phytotoxicity rating CORN” value ([13]; 63 g ai/ha) was 15, the “phytotoxicity rating CORN” value ([13]; 250 g ai/ha) was 70 and the “phytotoxicity rating RICE” value ([14]; 63 g ai/ha) was 50. The “phytotoxicity rating RICE” value ([14]; 250 g ai/ha) was 90, the “Pre-emerge Herbicidal Activity, phytotoxicity rating (0-100), AMARE” value ([15]; 63 g ai/ha) was 100 and the “Pre-emerge Herbicidal Activity, phytotoxicity rating (0-100), AMARE” value ([15]; 250 g ai/ha) was 100. For the same compound, the “Pre-emerge Herbicidal Activity, phytotoxicity rating (0-100), AMBEL” value ([16]; 63 g ai/ha) was 0, the “Pre-emerge Herbicidal Activity, phytotoxicity rating (0-100), AMBEL” value ([16]; 250 g ai/ha) was 60 and the “Pre-emerge Herbicidal Activity, phytotoxicity rating (0-100), IPOHE” value ([17]; 63 g ai/ha) was 40. For the same compound, the “Pre-emerge Herbicidal Activity, phytotoxicity rating (0-100), IPOHE” value ([17]; 250 g ai/ha) was 80, the “Pre-emerge Herbicidal Activity, phytotoxicity rating (0-100), ABUTH” value ([18]; 63 g ai/ha) was 100 and the “Pre-emerge Herbicidal Activity, phytotoxicity rating (0-100), ABUTH” value ([18]; 250 g ai/ha) was 100. For the same compound, the “Pre-emerge Herbicidal Activity, phytotoxicity rating (0-100), ECHCG” value ([19]; 63 g ai/ha) was 0, the “Pre-emerge Herbicidal Activity, phytotoxicity rating (0-100), ECHCG” value ([19]; 250 g ai/ha) was 60 and the “Pre-emerge Herbicidal Activity, phytotoxicity rating (0-100), CASOB” value ([20]; 63 g ai/ha) was 35. For the same compound, the “Pre-emerge Herbicidal Activity, phytotoxicity rating (0-100), CASOB” value ([20]; 250 g ai/ha) was 90, the “Pre-emerge Herbicidal Activity, phytotoxicity rating (0-100), CHEAL” value ([21]; 63 g ai/ha) was 100 and the “Pre-emerge Herbicidal Activity, phytotoxicity rating (0-100), CHEAL” value ([21]; 250 g ai/ha) was 100. The “Pre-emerge Herbicidal Activity, phytotoxicity rating (0-100), SORHA” value ([22]; 63 g ai/ha) was 20, the “Pre-emerge Herbicidal Activity, phytotoxicity rating (0-100), SORHA” value ([22]; 250 g ai/ha) was 95 and the “Pre-emerge Herbicidal Activity, phytotoxicity rating (0-100), SETVI” value ([23]; 63 g ai/ha) was 95. The “Pre-emerge Herbicidal Activity, phytotoxicity rating (0-100), SETVI” value ([23]; 250 g ai/ha) was 100, the “Pre-emerge Herbicidal Activity, phytotoxicity rating (0-100), DIGSA” value ([24]; 63 g ai/ha) was 60 and the “Pre-emerge Herbicidal Activity, phytotoxicity rating (0-100), DIGSA” value ([24]; 250 g ai/ha) was 99.
